Measurements published in patent US20100016232A1, “Treatment Of Inflammatory Diseases With Mammal Beta Defensins” (Novozymes A/S, priority 2008, published 2010).
Where no end group is shown, it is not given here.

Assays:
[1] = test system: TNF production from human peripheral blood mononuclear cells (PBMC); experiment: TNF production from human PBMC, Cytometric Bead Array; type: cell-based; conditions: Table 16
Description: (§1) Peripheral blood was drawn from healthy volunteers (with approval from the relevant ethical committee in Denmark). Heparinized blood was diluted 1/1 v/v with RPMI and were subjected to Ficoll density centrifugation within 2 h of drawing. Plasma was collected from the top from individual donors and was kept on ice until it was used at 2% in the culture medium (autologous culture medium). Isolated PBMC were resuspended in autologous culture medium and seeded in 96-well culture plates with 255.000 cells per well in a total of 200 μl. […] The concentrations used for stimulation were optimized on 3 different donors in initial experiments, for LPS two different concentrations were used to be sure to be on a cytokine level that is possible to modulate. In some experiments PBMC were treated with Dexamethason and Indomethacin alone and together with LPS or LTA as a control on downregulation of inflammatory cytokines. The supernatants were collected after incubation at 37° C. for 24 hours, and stored at −80° C. until cytokine measurement. Viability was measured by Alamar Blue (Biosource, DALL 1100) in all experiments and in some cases also by MTS (Promega) according to manufacturer's instruction and was in some experiments also judged by counting of the cells by a Nucleocounter.
(§2) Cytokine production in supernatants was measured by flow cytometry with a human inflammation cytometric bead array (CBA) according to manufacturer's instructions (BD) on a FACSarray flow cytometer. The following cytokines were measured: IL-8, IL-1β, IL-10, TNF, IL-12 p70, IL-6. In some experiments, cytokines were measured by ELISA kits from R&D systems (IL-10, TNF-α, IL-1β) according to the manufacturer' instruction.

[2] = test system: IL-1β production from human peripheral blood mononuclear cells (PBMC); experiment: IL-1β production from human PBMC, Cytometric Bead Array; type: cell-based; conditions: Table 18
Description: as §1, §2

[3] = test system: IL-10 production from human peripheral blood mononuclear cells (PBMC); experiment: IL-10 production from human PBMC, Cytometric Bead Array; type: cell-based; conditions: Table 17
Description: as §1, §2

PBMC = PBMC viability, Alamar Blue; type: cell-based, human; conditions: human PBMC, Example 2
Description: as §1

[4] = LPS 0.6 ng/ml, test compound 1 μg/ml
[5] = LPS 20 ng/ml, test compound 1 μg/ml
[6] = LPS 0.6 ng/ml, test compound 10 μg/ml
[7] = LPS 20 ng/ml, test compound 10 μg/ml
[8] = LPS 0.6 ng/ml, test compound 40 μg/ml
[9] = LPS 20 ng/ml, test compound 40 μg/ml

Q: Which TNF [1, 4] does the source give for “hBD3: human beta defensin 3, SEQ ID NO:3; prepared using chemical synthesis, Peptide Institute Inc. (GIINTLQKYYCRVRGGRCAVLSCLPKEEQTGKCSTRGRKCCRRKK; ends and bridges not checked; cysteine pairing not given here; listed as Homo sapiens)” here?
A: 528 pg/mL

Q: What about the “TNF % of control” value [1, 4] of the same substance?
A: 73%

Q: And the TNF [1, 5]?
A: 451 pg/mL

Q: And the “TNF % of control” value [1, 5]?
A: 21%

Q: What about the TNF ([1]; Medium, test compound 1 μg/ml) of the same substance?
A: 0 pg/mL

Q: And the IL-1β [2, 4]?
A: 331 pg/mL

Q: And the “IL-1β % of control” value [2, 4]?
A: 45%

Q: And the IL-1β [2, 5]?
A: 568 pg/mL

Q: What about the “IL-1β % of control” value [2, 5] of the same substance?
A: 22%

Q: What about the IL-1β ([2]; Medium, test compound 1 μg/ml) of the same substance?
A: 0 pg/mL

Q: And the IL-10 [3, 4]?
A: 71 pg/mL

Q: What about the “IL-10 % of control” value [3, 4] of the same substance?
A: 107%

Q: What about the “IL-10 % of control” value [3, 5] of the same substance?
A: 137%

Q: What about the IL-10 ([3]; Medium, test compound 1 μg/ml) of the same substance?
A: 0 pg/mL

Q: And the “toxicity to the cells” value (PBMC; 10 μg/ml and 40 μg/ml)?
A: toxic to the cells

Q: For “hBD4 variant: consists of amino acids 3-39 of hBD4, SEQ ID NO:5; prepared using chemical synthesis (ELDRICGYGTARCRKKCRSQEYRIGRCPNTYACCLRK; hBD-4 variant consisting of amino acids 3-39 of SEQ ID NO4)”, which TNF [1, 4] is on record?
A: 468 pg/mL

Q: What about the “TNF % of control” value [1, 4] of the same substance?
A: 64%

Q: What about the TNF [1, 6] of the same substance?
A: 211 pg/mL

Q: And the “TNF % of control” value [1, 6]?
A: 29%

Q: What about the TNF [1, 5] of the same substance?
A: 778 pg/mL

Q: And the “TNF % of control” value [1, 5]?
A: 36%

Q: And the TNF [1, 7]?
A: 139 pg/mL

Q: And the “TNF % of control” value [1, 7]?
A: 6%

Q: And the TNF ([1]; Medium, test compound 1 μg/ml)?
A: 0 pg/mL

Q: And the TNF ([1]; Medium, test compound 10 μg/ml)?
A: 0 pg/mL

Q: And the IL-1β [2, 4]?
A: 286 pg/mL

Q: What about the “IL-1β % of control” value [2, 4] of the same substance?
A: 39%

Q: What about the IL-1β [2, 6] of the same substance?
A: 163 pg/mL

Q: What about the “IL-1β % of control” value [2, 6] of the same substance?
A: 22%

Q: What about the IL-1β [2, 5] of the same substance?
A: 1004 pg/mL

Q: And the “IL-1β % of control” value [2, 5]?
A: 40%

Q: And the IL-1β [2, 7]?
A: 463 pg/mL

Q: And the “IL-1β % of control” value [2, 7]?
A: 18%

Q: And the IL-1β ([2]; Medium, test compound 1 μg/ml)?
A: 0 pg/mL

Q: And the IL-1β ([2]; Medium, test compound 10 μg/ml)?
A: 0 pg/mL

Q: And the IL-10 [3, 4]?
A: 90 pg/mL

Q: And the “IL-10 % of control” value [3, 4]?
A: 136%

Q: What about the IL-10 [3, 6] of the same substance?
A: 92 pg/mL

Q: What about the “IL-10 % of control” value [3, 6] of the same substance?
A: 139%

Q: What about the “IL-10 % of control” value [3, 5] of the same substance?
A: 157%

Q: What about the IL-10 [3, 7] of the same substance?
A: 187 pg/mL

Q: What about the “IL-10 % of control” value [3, 7] of the same substance?
A: 168%

Q: And the IL-10 ([3]; Medium, test compound 1 μg/ml)?
A: 0 pg/mL

Q: And the IL-10 ([3]; Medium, test compound 10 μg/ml)?
A: 0 pg/mL

Q: And the “toxicity to the cells” value (PBMC; 40 μg/ml)?
A: toxic to the cells

Q: With “rhBD2: recombinant hBD2, which is identical to hBD2 as used in Example 1 (GIGDPVTCLKSGAICHPVFCPRRYKQIGTCGLPGTKCCKKP; not fully specified; ends and bridges not checked; UniProt O15263 24-64, looked up)” as the substance, how does the TNF [1, 4] read?
A: 196 pg/mL

Q: What about the “TNF % of control” value [1, 4] of the same substance?
A: 27%

Q: And the TNF [1, 6]?
A: 125 pg/mL

Q: And the “TNF % of control” value [1, 6]?
A: 17%

Q: And the TNF [1, 8]?
A: 74 pg/mL

Q: What about the “TNF % of control” value [1, 8] of the same substance?
A: 10%

Q: And the TNF [1, 5]?
A: 918 pg/mL

Q: And the “TNF % of control” value [1, 5]?
A: 42%

Q: What about the TNF [1, 7] of the same substance?
A: 260 pg/mL

Q: What about the “TNF % of control” value [1, 7] of the same substance?
A: 12%

Q: And the TNF [1, 9]?
A: 167 pg/mL

Q: What about the “TNF % of control” value [1, 9] of the same substance?
A: 8%

Q: And the TNF ([1]; Medium, test compound 1 μg/ml)?
A: 1 pg/mL

Q: And the TNF ([1]; Medium, test compound 10 μg/ml)?
A: 0 pg/mL

Q: What about the TNF ([1]; Medium, test compound 40 μg/ml) of the same substance?
A: 0 pg/mL

Q: And the IL-1β [2, 4]?
A: 284 pg/mL

Q: What about the “IL-1β % of control” value [2, 4] of the same substance?
A: 38%

Q: What about the IL-1β [2, 6] of the same substance?
A: 214 pg/mL

Q: And the “IL-1β % of control” value [2, 6]?
A: 29%

Q: And the IL-1β [2, 8]?
A: 124 pg/mL

Q: And the “IL-1β % of control” value [2, 8]?
A: 17%

Q: What about the IL-1β [2, 5] of the same substance?
A: 1480 pg/mL

Q: And the “IL-1β % of control” value [2, 5]?
A: 58%

Q: And the IL-1β [2, 7]?
A: 624 pg/mL

Q: And the “IL-1β % of control” value [2, 7]?
A: 25%

Q: And the IL-1β [2, 9]?
A: 395 pg/mL

Q: What about the “IL-1β % of control” value [2, 9] of the same substance?
A: 16%

Q: What about the IL-1β ([2]; Medium, test compound 1 μg/ml) of the same substance?
A: 0 pg/mL

Q: And the IL-1β ([2]; Medium, test compound 10 μg/ml)?
A: 0 pg/mL

Q: What about the IL-1β ([2]; Medium, test compound 40 μg/ml) of the same substance?
A: 0 pg/mL

Q: What about the IL-10 [3, 4] of the same substance?
A: 72 pg/mL

Q: What about the “IL-10 % of control” value [3, 4] of the same substance?
A: 108%

Q: And the IL-10 [3, 6]?
A: 103 pg/mL

Q: What about the “IL-10 % of control” value [3, 6] of the same substance?
A: 155%

Q: What about the IL-10 [3, 8] of the same substance?
A: 108 pg/mL

Q: What about the “IL-10 % of control” value [3, 8] of the same substance?
A: 162%

Q: What about the IL-10 [3, 5] of the same substance?
A: 126 pg/mL

Q: And the “IL-10 % of control” value [3, 5]?
A: 113%

Q: And the IL-10 [3, 7]?
A: 243 pg/mL

Q: What about the “IL-10 % of control” value [3, 7] of the same substance?
A: 218%

Q: And the IL-10 [3, 9]?
A: 281 pg/mL

Q: And the “IL-10 % of control” value [3, 9]?
A: 252%

Q: And the IL-10 ([3]; Medium, test compound 1 μg/ml)?
A: 0 pg/mL

Q: What about the IL-10 ([3]; Medium, test compound 10 μg/ml) of the same substance?
A: 0 pg/mL

Q: And the IL-10 ([3]; Medium, test compound 40 μg/ml)?
A: 0 pg/mL
